± gives the expanded uncertainty stated by the source.
Columns and labels:
[1] = xn = mol fraction of the nth substance listed; conditions: 101 kPa, Liquid, x2 = 0; for mass density: Vibrating tube method; for speed of sound: Pulse-echo method
[2] = refractive index (Na D-line) (dimensionless); conditions: 298.15 K; 101.33 kPa; Liquid; Standard Abbe refractometry

CCCCCCC [heptane] + BrCBr
mass density ([1]; 288.15 K): 688.15 ± 0.25 kg/m3 | speed of sound ([1]; 292.87 K): 1152.5 ± 1.6 m/s | mass density ([1]; 293.15 K): 683.94 ± 0.25 kg/m3 | speed of sound ([1]; 298.14 K): 1129.7 ± 1.6 m/s | mass density ([1]; 298.15 K): 679.7 ± 0.25 kg/m3 | speed of sound ([1]; 303.12 K): 1108.2 ± 1.6 m/s | mass density ([1]; 303.15 K): 675.44 ± 0.25 kg/m3 | speed of sound ([1]; 308.1 K): 1086.8 ± 1.6 m/s | mass density ([1]; 308.15 K): 671.15 ± 0.25 kg/m3 | mass density ([1]; 313.15 K): 666.83 ± 0.25 kg/m3 | speed of sound ([1]; 313.27 K): 1064.7 ± 1.6 m/s | mass density ([1]; 318.15 K): 662.48 ± 0.25 kg/m3

BrCBr [dibromomethane]
refractive index [2]: 1.3851 ± 0.0011
